#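 Tested at 5 concentrations; 48 h exposure; 96-well plates; endpoints linearly interpolated, else capped at highest concentration. Here, GI50 denotes the concentration required for 50% inhibition of growth. Definition used: TGI = concentration required for complete inhibition of growth.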
# What was measured:
# Assay in all cases: NCI-60 cell line screen, 48 h
# [1] = tested on: SF-268 CNS
# [2] = tested on: NCI/ADR-RES ovarian
# [3] = tested on: HOP-62 NSCLC
# [4] = tested on: SK-OV-3 ovarian
# [5] = tested on: SK-MEL-2 melanoma
# [6] = tested on: OVCAR-5 ovarian
# [7] = tested on: MALME-3M melanoma
# [8] = tested on: MDA-MB-231 breast
# [9] = tested on: BT-549 breast
# [10] = tested on: SR leukemia
SMILES,GI50 [1],TGI [1],GI50 [2],TGI [2],GI50 [3],TGI [3],GI50 [4],TGI [4],GI50 [5],TGI [5],GI50 [6],TGI [6],TGI [7],TGI [8],TGI [9],TGI [10],GI50 [8],GI50 [7],GI50 [9],GI50 [10]
CCCCCCCN(CCCCCCC)C(=N)c1ccc(OC)c2ccccc12,1.49 µM,3.16 µM,1.46 µM,3.05 µM,1.3 µM,2.79 µM,1.66 µM,3.14 µM,1.81 µM,3.4 µM,1.29 µM,2.88 µM,–,–,–,–,–,–,–,–
O=C1C2=C(c3ccccc31)C(c1ccc([N+](=O)[O-])cc1)NC(=S)N2 (configuration not stated),–,> 100 µM,–,–,–,> 100 µM,–,> 100 µM,–,> 100 µM,–,> 100 µM,> 100 µM,–,–,–,–,–,–,–
Cc1ccc(O)c(C(=O)/C=C/c2ccccc2)c1,–,> 100 µM,–,> 100 µM,–,> 100 µM,–,> 100 µM,–,> 100 µM,–,> 100 µM,–,> 100 µM,> 100 µM,> 100 µM,–,–,–,–
Cc1c2cc[n+](C)cc2c(C)c2c1[nH]c1ccc(OC(C)(C)C)cc12,–,> 100 µM,–,–,–,> 100 µM,–,> 100 µM,–,> 100 µM,–,> 100 µM,> 100 µM,–,–,> 100 µM,–,–,–,–
Cc1ccccc1N=C(c1ccccc1)C1C(=O)c2ccccc2C1=O,13.3 µM,40.2 µM,8.73 µM,47.3 µM,18.2 µM,63.9 µM,3.68 µM,77.2 µM,3.32 µM,59.8 µM,24.6 µM,> 100 µM,6.66 µM,> 100 µM,–,–,21.3 µM,0.562 µM,–,–
N#Cc1cc([N+](=O)[O-])ccc1NC(=O)C(=O)Nn1c(=S)[nH]c2ccccc2c1=O,–,> 100 µM,–,–,–,> 100 µM,–,> 100 µM,–,–,–,> 100 µM,> 100 µM,–,–,> 100 µM,–,–,–,–
O=C(NNC(=O)/C(=C/c1cccc([N+](=O)[O-])c1)NC(=O)c1ccccc1)Nc1ccc(Cl)cc1,–,29.6 µM,–,–,–,29.6 µM,–,32.1 µM,–,25.5 µM,–,32.4 µM,30 µM,–,–,28.1 µM,–,–,–,–
O=C(Nc1ccn(C2CCC(COC(c3ccccc3)(c3ccccc3)c3ccccc3)O2)c(=O)n1)c1ccccc1 (configuration not stated),–,17.4 µM,–,8.73 µM,–,16.3 µM,–,26.3 µM,–,8.71 µM,–,7.95 µM,9.91 µM,13.9 µM,–,4.82 µM,–,–,–,–
O=[N+]([O-])c1ccc(NC(c2ccccc2)c2ccc3cccnc3c2O)cc1 (configuration not stated),0.378 µM,> 100 µM,0.288 µM,> 23.4 µM,0.537 µM,> 100 µM,0.5 µM,> 100 µM,0.943 µM,> 100 µM,1.77 µM,> 100 µM,> 100 µM,> 100 µM,43.2 µM,–,0.696 µM,0.826 µM,0.601 µM,–
O=C1/C(=C/c2ccc(C(=O)O)cc2)CNC/C1=C\c1ccc(C(=O)O)cc1,–,> 100 µM,–,–,–,> 100 µM,–,> 100 µM,–,–,–,> 100 µM,> 100 µM,–,–,> 100 µM,–,–,–,–
CCCCCCCCCCCCCC(=O)OCC1OC(=O)C(O)C1O (configuration not stated),–,> 100 µM,–,–,–,> 100 µM,–,> 100 µM,–,–,–,> 100 µM,> 100 µM,–,–,> 100 µM,–,–,–,–
Clc1cc2ns[s+]c2cc1Cl,–,> 100 µM,–,–,–,> 81.7 µM,–,> 100 µM,–,> 100 µM,–,> 100 µM,> 100 µM,–,–,> 100 µM,–,–,–,–
CC(C)c1cccc(C(C)C)c1NC(=O)/C(Cc1nc2ccc(Cl)cc2[nH]c1=O)=N\NC(=O)C[N+](C)(C)C,–,> 100 µM,–,–,–,> 100 µM,–,> 100 µM,–,> 100 µM,–,> 100 µM,> 100 µM,–,–,> 100 µM,–,–,–,–
c1ccc2c(c1)CCCc1nnc3nc4ccccc4n3c1-2,5.73 µM,> 100 µM,3.32 µM,25.1 µM,4.73 µM,> 100 µM,7.78 µM,> 100 µM,28.3 µM,> 100 µM,9.28 µM,> 100 µM,–,> 100 µM,> 100 µM,25.7 µM,4.98 µM,–,11.5 µM,3.16 µM
c1ccc2cc(Cn3c(-c4cccc5ccccc45)[n+](Cc4ccc5ccccc5c4)c4c5ccccc5c5ccccc5c43)ccc2c1,–,–,1.77 µM,4.71 µM,0.387 µM,2.45 µM,0.322 µM,1.62 µM,–,–,0.378 µM,1.68 µM,1.45 µM,–,–,–,–,0.285 µM,–,–
O=S1c2ccccc2N=C(c2cccs2)CC1c1ccccc1O (configuration not stated),–,> 100 µM,–,–,–,> 100 µM,–,> 100 µM,–,> 100 µM,–,> 100 µM,> 100 µM,–,–,–,–,–,–,–
CN1C(=O)CC(CC(=O)C2CCCCC2=O)CC1=O (configuration not stated),–,> 100 µM,–,–,–,> 100 µM,–,> 100 µM,–,–,–,> 100 µM,> 100 µM,–,–,> 100 µM,–,–,–,–
C/C(COc1ccccc1)=N\NC(N)=S,–,> 100 µM,–,–,–,> 100 µM,–,> 100 µM,–,> 100 µM,–,> 100 µM,> 100 µM,–,–,> 100 µM,–,–,–,–
CN(C)c1ccc(/C=C(\C#N)C(=O)c2ccccc2)cc1Br,–,> 100 µM,–,–,–,39.6 µM,–,> 100 µM,–,> 100 µM,–,> 100 µM,> 100 µM,–,–,> 100 µM,–,–,–,–
CCn1c(C)nc([N+](=O)[O-])c1Sc1ncc[nH]1,–,> 100 µM,–,–,–,> 100 µM,–,> 100 µM,–,> 100 µM,–,> 100 µM,93.8 µM,–,–,> 100 µM,–,–,–,–
O=C(Nc1cccc(Cl)c1)Nc1cc(C(F)(F)F)ccc1Cl,3.55 µM,11.7 µM,2.64 µM,7.12 µM,2.72 µM,9.23 µM,3.54 µM,16.5 µM,2.24 µM,5.4 µM,3.17 µM,12.7 µM,–,4.23 µM,10.1 µM,38 µM,1.97 µM,–,2.81 µM,3.78 µM
CCOC1=C2N=C(C(CC)c3ccc(F)cc3)N=C2C(=O)c2ccccc21 (configuration not stated),–,99.4 µM,–,–,–,> 100 µM,–,> 100 µM,–,39.5 µM,–,> 100 µM,61.8 µM,–,–,89.2 µM,–,–,–,–

# Reference: PubChem BioAssay (NCI)
